Experimental data from PMC11183114, “Structural basis of S-adenosylmethionine-dependent allosteric transition from active to inactive states in methylenetetrahydrofolate reductase” (Nature Communications, 2024).
Residue numbers refer to the chain shown, from its start. pKd: −log10 of the molar value. Like-named read-outs stand apart in the source and are kept apart here.

How the values were obtained:
[1] = target: T1, methylenetetrahydrofolate reductase (cMTHFR) (Thermochaetoides thermophila, UniProt G0S5U9); assay: NADH-menadione oxidoreductase assay, purified enzyme ([…] NADH); type: biochemical
T1 construct: gene CTHT_0033700; cMTHFR^wt
T1 sequence (G0S5U9 1-614): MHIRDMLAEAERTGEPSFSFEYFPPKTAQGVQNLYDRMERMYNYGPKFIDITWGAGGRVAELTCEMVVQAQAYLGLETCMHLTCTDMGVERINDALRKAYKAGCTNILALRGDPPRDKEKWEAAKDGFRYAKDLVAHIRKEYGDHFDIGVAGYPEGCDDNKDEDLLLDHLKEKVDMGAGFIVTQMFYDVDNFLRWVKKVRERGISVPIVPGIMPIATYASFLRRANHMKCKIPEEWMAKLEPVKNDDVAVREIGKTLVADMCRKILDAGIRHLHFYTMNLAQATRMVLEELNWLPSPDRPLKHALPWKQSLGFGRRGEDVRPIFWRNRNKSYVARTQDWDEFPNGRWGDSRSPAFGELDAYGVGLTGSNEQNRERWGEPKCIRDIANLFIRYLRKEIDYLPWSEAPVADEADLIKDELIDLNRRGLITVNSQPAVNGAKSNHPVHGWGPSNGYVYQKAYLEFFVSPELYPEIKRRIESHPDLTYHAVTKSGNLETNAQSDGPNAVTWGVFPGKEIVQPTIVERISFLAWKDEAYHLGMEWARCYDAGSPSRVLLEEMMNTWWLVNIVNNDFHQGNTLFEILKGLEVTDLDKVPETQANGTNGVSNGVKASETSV

[2] = target: T1, methylenetetrahydrofolate reductase (cMTHFR); assay: NADPH-menadione oxidoreductase assay, purified enzyme ([…] NADPH); type: biochemical
[3] = target: T1, methylenetetrahydrofolate reductase (cMTHFR); assay: UV-Vis titration (FAD absorbance quench at […] nm, Hill fit, coefficient […]); […] also inhibits NADPH-menadione oxidoreductase activity by […]; type: binding
[4] = target: T2, methylenetetrahydrofolate reductase (cMTHFR) (Thermochaetoides thermophila, UniProt G0S5U9, R315A); assay: X-ray crystal structure, […] Å (T-state); type: binding; design: gene CTHT_0033700; cMTHFR^R315A, homodimer; two AdoMet per regulatory domain
T2 sequence (G0S5U9 1-614 R315A): T1 sequence (G0S5U9 1-614) with R315A
Description: Unexpectedly, two molecules of AdoMet were found

[5] = target: T3, methylenetetrahydrofolate reductase (cMTHFR) (Thermochaetoides thermophila, UniProt G0S5U9, E21Q/L393M/V516F); assay: X-ray crystal structure, […] Å (R-state); type: binding
T3 construct: gene CTHT_0033700; cMTHFR^E21Q, L393M, V516F, surface lysines reductively methylated
T3 sequence (G0S5U9 1-614 E21Q/L393M/V516F): T1 sequence (G0S5U9 1-614) with E21Q, L393M, V516F

[6] = target: T2, methylenetetrahydrofolate reductase (cMTHFR); assay: X-ray crystal structure, […] Å (T-state); type: binding; design: gene CTHT_0033700; cMTHFR^R315A

NC(=O)C1=CN([C@@H]2O[C@H](COP(=O)(O)OP(=O)(O)OC[C@H]3O[C@@H](n4cnc5c(N)ncnc54)[C@H](O)[C@@H]3O)[C@@H](O)[C@H]2O)C=CC1 [NADH]
NADH-menadione oxidoreductase assay, purified enzyme (100 μM NADH) [1]: 44 µM/min

NC(=O)C1=CN([C@@H]2O[C@H](COP(=O)(O)OP(=O)(O)OC[C@H]3O[C@@H](n4cnc5c(N)ncnc54)[C@H](OP(=O)(O)O)[C@@H]3O)[C@@H](O)[C@H]2O)C=CC1 [NADPH]
NADPH-menadione oxidoreductase assay, purified enzyme (100 μM NADPH) [2]: 120 µM/min

C[S@@+](CC[C@H](N)C(=O)[O-])C[C@H]1O[C@@H](n2cnc3c(N)ncnc32)[C@H](O)[C@@H]1O [AdoMet]
pKd [3]: ~4.73
X-ray crystal structure, 2.8 Å (T-state) [4]: The regulatory domain was found to bind AdoMet, as expected for the T-state. Unexpectedly, two molecules of AdoMet were found

Cc1cc2nc3c(=O)[nH]c(=O)nc-3n(C[C@H](O)[C@H](O)[C@H](O)COP(=O)(O)OP(=O)(O)OC[C@H]3O[C@@H](n4cnc5c(N)ncnc54)[C@H](O)[C@@H]3O)c2cc1C [FAD]
X-ray crystal structure, 3.4 Å (R-state) [5]: Electron density for FAD was observed in every catalytic active site.
X-ray crystal structure, 2.8 Å (T-state) [6]: the si-face of FAD is occluded by Tyr361 on the C-terminal region of the linker, which forms a π-stacking interaction
